Where two headings read alike, the source gives them in different places. Ends that are not written are not given here.
Experiments:
[1] = tested on: anti-K17F serum; conditions: cited from earlier work; for cross-reactivity with the apelin antiserum: ref De Mota et al, PNAS, 2004
Protocol: The columns were then treated as described in 207 the paragraph above.

[2] = in vivo; conditions: mouse, in vivo, iv
Protocol: (§1) 187 Apelin radioimmunoassay
(§2) 188 Plasma samples (0.5 ml) were acidified with 0.175 ml of 3 mol/l HCl and stored at -80°C
(§3) 189 until use for apelin RIA. Before thawing the sample on ice, 0.05% BSA was added, and the
(§4) 190 samples were centrifuged at 20000 x g at 4°C for 10 min. The supernatants were collected and
(§5) 191 the pH was adjusted to 6.5 with 10 mol/l NaOH and 2 mol/l Tris-HCl buffer (pH 7.4). Apelin
(§6) 192 was extracted from plasma by mixing the supernatant with 0.3 ml of 0.1% BSA in H2O and 1
(§7) 193 ml of 1% trifluoroacetic acid (TFA) - 0.1% BSA, and running the mixture on a Sep-Pak C18
(§8) 194 cartridge (Waters) previously washed with 2 ml 100% acetonitrile and equilibrated with 5 ml
(§9) 195 1% TFA - 0.1% BSA. The columns then were washed with 3 ml 1% TFA - 0.1% BSA and
(§10) 196 apelin was eluted with 1.5 ml 100% acetonitrile. […]
(§11) 208 Plasma or brain apelin levels w ere deter mined by RIA. Samples (0.1ml) w ere mixed with 125I-
(§12) 211 dilution: 1/4500) to give a total volume of 0.2 ml and were incubated at 4°C overnight. We
(§13) 212 used this radioligand instead of [Glp65, Nle75, Tyr77] [125I]-apelin13 since the substitution of
(§14) 214 derivatives as described previously by 3,4.
(§15) 215 We then added 0.5 ml of Amerlex (Amersham RPN 510), and the resulting mixture was
(§16) 216 incubated for 10 min at room temperature. The tubes were centrifuged at 2600 x g at 4°C for
217 20 min. The supernatant was removed and the radioactivity of the precipitates was measured. […]

[3] = biological target: T1, rat apelin-R (Rattus norvegicus, UniProt Q9JHG3); test: Radioligand binding ([125I]-pE13F) to membranes from CHO cells stably expressing rat apelin-R-EGFP; conditions: 1 h 20 °C, pH 7.4, new batch of LIT01-196
T1 construct: expressed in transfected cells; membrane preparation
T1 sequence (Q9JHG3 1-377): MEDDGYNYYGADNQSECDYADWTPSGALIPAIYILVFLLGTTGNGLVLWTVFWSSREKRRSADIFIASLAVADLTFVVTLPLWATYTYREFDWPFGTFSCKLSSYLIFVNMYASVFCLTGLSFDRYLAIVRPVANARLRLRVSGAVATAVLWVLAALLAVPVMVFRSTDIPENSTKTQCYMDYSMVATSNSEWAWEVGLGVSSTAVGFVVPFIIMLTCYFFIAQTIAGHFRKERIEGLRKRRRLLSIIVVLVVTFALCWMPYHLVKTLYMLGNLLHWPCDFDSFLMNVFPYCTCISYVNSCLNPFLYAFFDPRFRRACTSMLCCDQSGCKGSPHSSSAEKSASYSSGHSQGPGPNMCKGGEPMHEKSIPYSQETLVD
Protocol: Membranes from CHO cells stably expressing rat apelin-R-EGFP were prepared as previously described[23]. […] The reaction was stopped by adding ice-cold binding buffer and filtering through Whatman GF/C filters. The filters were washed and radioactivity was counted with a Wizard 1470 Wallac gamma counter (PerkinElmer, Turku, Finland).

[4] = in vivo; conditions: rat, in vivo, iv
Protocol: as §1, §2, §3, §4, §5, §6, §7, §8, §9, §10, §11, §12, §13, §14, §15, §16
217 20 min. The supernatant was removed and the radioactivity of the precipitates was measured.
218 We assessed the cross-reactivity of the apelin antiserum with various N- and C-terminally
232 according to the following equation: [plasma apelin] tx = [plasma apelin] t0 * e(-kt) , where k is
233 the elimination rate constant. […]

[5] = biological target: T2, rat apelin-R-EGFP (Rattus norvegicus, UniProt Q9JHG3); test: Inhibition of forskolin-induced cAMP production in CHO cells stably expressing rat apelin-R-EGFP (HTRF); assay type: cell-based; conditions: 5 µmol/l forskolin, 30 min 20 °C
T2 construct: expressed in transfected cells
T2 sequence (Q9JHG3 1-377): T1 sequence (Q9JHG3 1-377)
Protocol: 152 Supplementary Methods
154 We quantified cAMP production with the cAMP dynamic 2 assay kit (Cisbio Bioassays,
155 Codolet, France), which is based on homogeneous time-resolved fluorescence (HTRF)
156 technology, as previously described 1. For cells expressing the Apelin-R, 2000 CHO cells/well
157 stably expressing rat apelinR-EGFP (clone B70) were added to the 384-well plate and
158 stimulated with 5 µmol/l forskolin (FSK) and various concentrations (0.01 pmol/l to 100 […]
Cells were then lysed, and
165 cAMP levels were determined in accordance with the kit manufacturer’s instructions.
166 Stimulation was performed in stimulation buffer-IBMX (SBI) (Hank’s balanced salt solution
167 (HBSS-Life Technology), 5 mmol/l Hepes, 0.1% BSA stabilizer (Perkin Elmer), 1 mmol/l
168 isobutylmethylxanthine (IBMX, Sigma Aldrich, pH 7.4)). […]

[6] = biological target: anti-K17F serum; test: Inhibition of [125I]-pE13F binding to anti-K17F serum (apelin RIA, cross-reactivity); parameters: species or system rabbit; conditions: read-out: IC50, recognition by antibody directed against K17F, antiserum 1/4500
Protocol: The columns were then treated as described in
Samples (0.1ml) w ere mixed with 125I-
as §13, §14
216 incubated for 10 min at room temperature.
This antiserum identified the apelin present in the
Most of the apelin in human plasma was […]

## angiotensin II (DRVYIHPF; Angiotensin-2; UniProt P01019 25-32, looked up)
[1]
  cross-reactivity with the apelin antiserum: Negligible cross-reactivity

## CSCC[C@H](NC(=O)[C@@H]1CCCN1C(=O)CNC(=O)[C@H](CCCCN)NC(=O)[C@H](Cc1cnc[nH]1)NC(=O)[C@H](CO)NC(=O)[C@H](CC(C)C)NC(=O)[C@H](CCCNC(=N)N)NC(=O)[C@@H]1CCCN1C(=O)[C@H](CCCNC(=N)N)NC(=O)[C@H](CCC(N)=O)NC(=O)[C@H](CCCNC(=N)N)NC(=O)[C@H](CCCNC(=N)N)NC(=O)[C@H](Cc1ccccc1)NC(=O)[C@@H](N)CCCCN)C(=O)N1CCC[C@H]1C(=O)N[C@@H](Cc1ccccc1)C(=O)O [K17F, reference compound]
[2]
  half-life: 44 s
[3]
  Ki: 0.14 ± 0.02 nM
[4]
  half-life: 50 s
[5]
  IC50: 0.6 ± 0.2 nM

## Fluoro-K16P: not recognized by the antibody directed against K17F (KFRRQRPRLSHKGPMP; also: fluorescent label, site and dye not given here; UniProt Q9ULZ1 61-76, looked up, fragment) [reference compound]
[6]
  IC50: > 1000 nM

## apelin 36: molecular form of apelin identified in vivo (LVQPRGSRNGPGPWQGGRRKFRRQRPRLSHKGPMPF; Apelin-36; UniProt Q9ULZ1 42-77, looked up)
[1]; pE13F taken as 100%
  cross-reactivity with the apelin antiserum: 100%

## K16P: K17F after removal of the phenylalanine residue at the extreme end of the C-terminus (KFRRQRPRLSHKGPMP; UniProt Q9ULZ1 61-76, looked up, fragment)
[1]
  recognition by antibody directed against K17F: does not recognize
[1]; pE13F taken as 100%
  cross-reactivity with the apelin antiserum: < 0.3%
